In patent US9993494B2, “Compositions and methods for treating fibrotic disease” (eFFECTOR Therapeutics, Inc., priority 2014, dated 2018):

System: normal human lung fibroblasts
Test: Ribosomal profiling: translational efficiency in TGFβ-treated fibroblasts
Format: cell-based
Details: TGFβ-treated fibroblasts
In short: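 Genome-wide RPF and total RNA libraries (ARTseq, RNA-Seq) were made from lysates of cycloheximide-treated, PBS-washed cells. After trimming and human-genome mapping, per-gene coding-region counts were compared between RPF and RNA for translational efficiency. Genes scoring low in either fraction were dropped.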

SMILES: CC(C=CC(=O)NO)=CC(C)C(=O)c1ccc(N(C)C)cc1 (stereo not drawn) [TSA, 7-[4-(dimethylamino)phenyl]-N-hydroxy-4,6-dimethyl-7-oxohepta-2,4-dienamide]
- effect in renormalizing the translational profile of the gene (gene RPS6 (ENSG00000137154)): − (− = <0.9)
- effect in renormalizing the translational profile of the gene (gene RPS6KA5 (ENSG00000100784)): − (− = <0.9)
- effect in renormalizing the translational profile of the gene (gene RPS7 (ENSG00000171863)): − (− = <0.9)
- effect in renormalizing the translational profile of the gene (gene RPS8 (ENSG00000142937)): − (− = <0.9)
- effect in renormalizing the translational profile of the gene (gene RPS9 (ENSG00000170889)): − (− = <0.9)
- effect in renormalizing the translational profile of the gene (gene RPS10 (ENSG00000124614)): − (− = <0.9)
- effect in renormalizing the translational profile of the gene (gene RPS11 (ENSG00000142534)): − (− = <0.9)
- effect in renormalizing the translational profile of the gene (gene RPS12 (ENSG00000112306)): − (− = <0.9)
- effect in renormalizing the translational profile of the gene (gene RPS13 (ENSG00000110700)): − (− = <0.9)
- effect in renormalizing the translational profile of the gene (gene RPS14 (ENSG00000164587)): − (− = <0.9)
- effect in renormalizing the translational profile of the gene (gene RPS15 (ENSG00000115268)): − (− = <0.9)
- effect in renormalizing the translational profile of the gene (gene RPS15A (ENSG00000134419)): − (− = <0.9)
- effect in renormalizing the translational profile of the gene (gene RPS16 (ENSG00000105193)): − (− = <0.9)
- effect in renormalizing the translational profile of the gene (gene RPS18 (ENSG00000231500)): − (− = <0.9)
- effect in renormalizing the translational profile of the gene (gene RPS19 (ENSG00000105372)): − (− = <0.9)
- effect in renormalizing the translational profile of the gene (gene RPS20 (ENSG00000008988)): − (− = <0.9)
- effect in renormalizing the translational profile of the gene (gene RPS21 (ENSG00000171858)): − (− = <0.9)
- effect in renormalizing the translational profile of the gene (gene RPS23 (ENSG00000186468)): − (− = <0.9)
- effect in renormalizing the translational profile of the gene (gene RPS24 (ENSG00000138326)): − (− = <0.9)
- effect in renormalizing the translational profile of the gene (gene RPS25 (ENSG00000118181)): − (− = <0.9)
- effect in renormalizing the translational profile of the gene (gene RPS26 (ENSG00000197728)): − (− = <0.9)
- effect in renormalizing the translational profile of the gene (gene RPS27 (ENSG00000177954)): − (− = <0.9)
- effect in renormalizing the translational profile of the gene (gene RPS27A (ENSG00000143947)): − (− = <0.9)
- effect in renormalizing the translational profile of the gene (gene RPS28 (ENSG00000233927)): − (− = <0.9)
- effect in renormalizing the translational profile of the gene (gene RPS29 (ENSG00000213741)): − (− = <0.9)
- effect in renormalizing the translational profile of the gene (gene RPSA (ENSG00000168028)): − (− = <0.9)
- effect in renormalizing the translational profile of the gene (gene RTN2 (ENSG00000125744)): − (− = <0.9)
- effect in renormalizing the translational profile of the gene (gene SEMA3A (ENSG00000075213)): − (− = <0.9)
- effect in renormalizing the translational profile of the gene (gene SGIP1 (ENSG00000118473)): − (− = <0.9)
- effect in renormalizing the translational profile of the gene (gene SH3BGR (ENSG00000185437)): − (− = <0.9)
- effect in renormalizing the translational profile of the gene (gene SHC3 (ENSG00000148082)): + (+ = 0.9 to 1.5)
- effect in renormalizing the translational profile of the gene (gene SLC2A12 (ENSG00000146411)): − (− = <0.9)
- effect in renormalizing the translational profile of the gene (gene SLC7A7 (ENSG00000155465)): − (− = <0.9)
- effect in renormalizing the translational profile of the gene (gene SLC15A3 (ENSG00000110446)): ++ (++ = 1.5 to 2.0)
- effect in renormalizing the translational profile of the gene (gene SLC25A6 (ENSG00000169100)): − (− = <0.9)
- effect in renormalizing the translational profile of the gene (gene SLC40A1 (ENSG00000138449)): + (+ = 0.9 to 1.5)
- effect in renormalizing the translational profile of the gene (gene SMO (ENSG00000128602)): − (− = <0.9)
- effect in renormalizing the translational profile of the gene (gene SNRPA (ENSG00000077312)): − (− = <0.9)
- effect in renormalizing the translational profile of the gene (gene SOX5 (ENSG00000134532)): + (+ = 0.9 to 1.5)
- effect in renormalizing the translational profile of the gene (gene SOX6 (ENSG00000110693)): − (− = <0.9)
- effect in renormalizing the translational profile of the gene (gene SPATA6 (ENSG00000132122)): − (− = <0.9)
- effect in renormalizing the translational profile of the gene (gene STAMBPL1 (ENSG00000138134)): + (+ = 0.9 to 1.5)
- effect in renormalizing the translational profile of the gene (gene STS (ENSG00000101846)): − (− = <0.9)
- effect in renormalizing the translational profile of the gene (gene SYNE2 (ENSG00000054654)): − (− = <0.9)
- effect in renormalizing the translational profile of the gene (gene TAF1D (ENSG00000166012)): + (+ = 0.9 to 1.5)
- effect in renormalizing the translational profile of the gene (gene TDG (ENSG00000139372)): − (− = <0.9)
- effect in renormalizing the translational profile of the gene (gene TEN1 (ENSG00000257949)): − (− = <0.9)
- effect in renormalizing the translational profile of the gene (gene TET2 (ENSG00000168769)): − (− = <0.9)
- effect in renormalizing the translational profile of the gene (gene TET3 (ENSG00000187605)): − (− = <0.9)
- effect in renormalizing the translational profile of the gene (gene TGFBI (ENSG00000120708)): − (− = <0.9)
- effect in renormalizing the translational profile of the gene (gene THBS3 (ENSG00000169231)): − (− = <0.9)
- effect in renormalizing the translational profile of the gene (gene THG1L (ENSG00000113272)): − (− = <0.9)
- effect in renormalizing the translational profile of the gene (gene TIMM9 (ENSG00000100575)): − (− = <0.9)
- effect in renormalizing the translational profile of the gene (gene TKT (ENSG00000163931)): − (− = <0.9)
- effect in renormalizing the translational profile of the gene (gene TMTC1 (ENSG00000133687)): + (+ = 0.9 to 1.5)
- effect in renormalizing the translational profile of the gene (gene TOMM7 (ENSG00000196683)): − (− = <0.9)
- effect in renormalizing the translational profile of the gene (gene TOP2A (ENSG00000131747)): − (− = <0.9)
- effect in renormalizing the translational profile of the gene (gene TPGS1 (ENSG00000141933)): − (− = <0.9)
- effect in renormalizing the translational profile of the gene (gene TPM2 (ENSG00000198467)): − (− = <0.9)
- effect in renormalizing the translational profile of the gene (gene TPT1 (ENSG00000133112)): − (− = <0.9)
- effect in renormalizing the translational profile of the gene (gene TRERF1 (ENSG00000124496)): − (− = <0.9)
- effect in renormalizing the translational profile of the gene (gene UBA52 (ENSG00000221983)): − (− = <0.9)
- effect in renormalizing the translational profile of the gene (gene UQCRB (ENSG00000156467)): − (− = <0.9)
- effect in renormalizing the translational profile of the gene (gene UTRN (ENSG00000152818)): − (− = <0.9)
- effect in renormalizing the translational profile of the gene (gene VIM (ENSG00000026025)): − (− = <0.9)
- effect in renormalizing the translational profile of the gene (gene ZNF581 (ENSG00000171425)): − (− = <0.9)
